According to patent publication US5521156A, “Cyclic neurokinin A antagonists” (priority 1994, dated 1996):
Where a SMILES comes first, the peptide text is derived from it. [ ]: non-standard residue; d: D form. Phe(4-NO2) = N[C@@H](Cc1ccc([N+](=O)[O-])cc1)C(=O)O; Phe(4-Cl) = N[C@@H](Cc1ccc(Cl)cc1)C(=O)O; Phe(4-NH2) = Nc1ccc(C[C@H](N)C(=O)O)cc1

How the values were obtained:
[1] = biological target: T1, human jejunal NK-2 receptor (Homo sapiens, UniProt P21452); experiment: NK-2 receptor binding (125I-neurokinin A) in HSKR-1 cell membranes; conditions: HSKR-1 cells (mouse 3T3 fibroblasts expressing human jejunal NK-2 receptor); 0.1 nM 125I-iodohistidyl-1-neurokinin A; mean ± S.E.M.
T1 construct: expressed in transfected cells; host or cells: HSKR-1 (mouse 3T3 fibroblasts)
T1 sequence (P21452 1-398): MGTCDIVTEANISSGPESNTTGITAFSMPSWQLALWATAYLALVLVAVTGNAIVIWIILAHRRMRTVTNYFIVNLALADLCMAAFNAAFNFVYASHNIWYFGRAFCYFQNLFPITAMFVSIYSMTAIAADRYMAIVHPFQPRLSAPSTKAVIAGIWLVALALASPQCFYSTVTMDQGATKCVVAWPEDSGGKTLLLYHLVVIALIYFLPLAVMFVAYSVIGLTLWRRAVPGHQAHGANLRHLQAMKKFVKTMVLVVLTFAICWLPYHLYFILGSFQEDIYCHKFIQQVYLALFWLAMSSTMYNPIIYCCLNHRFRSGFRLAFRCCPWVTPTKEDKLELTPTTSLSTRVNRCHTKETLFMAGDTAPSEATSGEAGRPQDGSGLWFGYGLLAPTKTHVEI
Experimental: (§1) Receptor binding assays were performed in crude tissue membranes. The NK-1 receptor binding affinity of proposed tachykinin antagonists was evaluated in guinea pig lungs (Keystone Biologicals, Cleveland, OH, kept frozen at -80° C. until use). Affinity for the NK-2 receptor was evaluated in HSKR-1 cells which are mouse 3T3 fibroblasts expressing the human jejunal NK-2 receptor. Tissues or cells were homogenized with a Polytron in 15 volumes of 50 mM Tris-HCl buffer (pH 7.4, 4° C.) containing 120 mM NaCl and 5 mM KCl and centrifuged at 48,000×g for 12 min. at 4° C. The pellet was resuspended in 15 volumes of 50 mM Tris-HCl buffer containing 10 mM EDTA and 300 mM KCl then set on ice for 30 min. The suspension was cetrifuged as above and the pellet washed by resuspension and cetrifugation two additional times in 50 mM Tris-HCl buffer (pH 7.4, 4° C.). The final pellet was resuspended in a concentration of 20 mg/ml in incubation buffer then kept at room temperature for at least 15 min prior to use. Receptor binding was initiated by addition of 250 μl membrane preparation (final protein concentration; lungs=286 μg/tube, HSKR-1 cells=100 μg/tube) in duplicate to 0.1 nM of the following radioligands: for NK-1 receptor assays, ^125 I-Bolton-Hunter Lys-3 labeled substance P (New England Nuclear, specific activity, 2200 Ci/mmol); for NK-2 receptor assays, ^125 iodohistidyl-1-neurokinin A (Amersham, specific activity, 2000 Ci/mmol) in a final volume of 500 μl of buffer containing 50 mM Tris-HCl (pH 7.4 at room temperature), 0.1% bovine serum albumin, 2 mM MnCl2, 40 μg/ml bacitracin, 4 μg/ml leupeptin and chymostatin, 1 μM thiorphan and various doses of the tachykinin antagonists. Incubations were performed at room temperature for 90 min (NK-1 receptor assays) or 2 hr (NK-2 receptor assays); binding was terminated by addition of 50 mM Tris-HCl buffer (pH 7.4, 4° C.) and filtration under vacuum through GF/B filters presoaked with 0.1% polyethyleneimine (NK-1 receptor assays) or 0.5% bovine serum albumin (NK-2 receptor assays). Nonspecific binding was defined as binding in the presence of 1 μM substance P (NK-1 receptor assays) or neurokinin A (NK-2 receptor assays) (Peptides International, Inc., Louisville, Ky.). Specific binding was calculated by subtracting nonspecific binding from total binding and corresponded to 70-90% of total binding. Data were analyzed and IC50 values generated by nonlinear regression using an iterative curve fitting program (GraphPAD Inplot, San Diego, Calif.). Protein was determined by the method of Lowry.

NK-1 receptor = biological target: T2, NK-1 receptor (Cavia porcellus, UniProt P30547); experiment: NK-1 receptor binding (125I-Bolton-Hunter substance P) in guinea pig lung membranes; conditions: 0.1 nM 125I-Bolton-Hunter Lys-3 substance P, mean ± S.E.M.
T2 construct: tissue Keystone Biologicals, Cleveland, OH; host or cells: guinea pig lung
Experimental: as §1

T2 sequence (P30547 whole entry): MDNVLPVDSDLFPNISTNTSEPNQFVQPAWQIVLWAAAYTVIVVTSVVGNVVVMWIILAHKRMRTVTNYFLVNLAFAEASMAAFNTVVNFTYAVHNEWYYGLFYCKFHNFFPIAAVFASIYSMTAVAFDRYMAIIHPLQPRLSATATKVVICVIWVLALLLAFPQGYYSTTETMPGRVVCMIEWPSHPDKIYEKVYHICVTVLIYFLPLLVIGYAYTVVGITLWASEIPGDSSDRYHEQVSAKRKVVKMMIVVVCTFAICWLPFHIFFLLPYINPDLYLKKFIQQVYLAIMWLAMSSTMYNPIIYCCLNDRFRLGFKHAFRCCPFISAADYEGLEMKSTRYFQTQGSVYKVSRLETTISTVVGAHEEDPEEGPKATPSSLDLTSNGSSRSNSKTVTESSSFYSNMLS

Row | IC50 [1] [nM] | IC50 (NK-1 receptor) [nM] | SMILES
1 | 768 ± 75 |  | CC(C)C[C@@H]1NC(=O)CNC(=O)[C@H](Cc2c[nH]c3ccccc23)NC(=O)[C@H](CCCNC(=N)N)NC(=O)[C@H](CC(C)C)NC(=O)CNC(=O)[C@H](Cc2c[nH]c3ccccc23)NC(=O)[C@H](CCCNC(=N)N)NC1=O [cyclo[Leu-Arg-Trp-Gly-Leu-Arg-Trp-Gly]] (cyclo(GLRWGLRW))
2 | 674 ± 57 | 9310 ± 2070 | N=C(N)NCCC[C@@H]1NC(=O)[C@@H]2CCCN2C(=O)[C@@H](Cc2ccccc2)NC(=O)[C@H](Cc2ccccc2)NC(=O)CNC(=O)[C@H](Cc2ccccc2)NC1=O [cyclo[Phe--phe--Pro--Arg--Phe--Gly], cyclo[Phe-phe-Pro-Arg-Phe-Gly]] (cyclo(FGF[dF]PR))
3 | 4.7 ± 0.15 | 4830 ± 297 | CC(C)C[C@@H]1NC(=O)[C@@H](Cc2c[nH]c3ccccc23)NC(=O)[C@H](Cc2c[nH]c3ccccc23)NC(=O)CNC(=O)[C@H](Cc2c[nH]c3ccccc23)NC(=O)[C@H](CCCNC(=N)N)NC1=O [cyclo[Trp--trp--Leu--Arg--Trp--Gly], cyclo[Trp-trp-Leu-Arg-Trp-Gly]] (cyclo(GW[dW]LRW))
4 | 305 ± 31 | 10000 | CC(C)C[C@@H]1NC(=O)[C@H](Cc2c[nH]c3ccccc23)NC(=O)[C@H](Cc2ccc(O)cc2)NC(=O)CNC(=O)[C@H](Cc2c[nH]c3ccccc23)NC(=O)[C@H](CCCNC(=N)N)NC1=O [cyclo[Tyr--Trp--Leu--Arg--Trp--Gly]] (cyclo(GYWLRW))
5 | 56.7 ± 5.45 |  | C[C@@H]1NC(=O)[C@@H](Cc2c[nH]c3ccccc23)NC(=O)[C@H](Cc2ccc(O)cc2)NC(=O)CNC(=O)[C@H](Cc2c[nH]c3ccccc23)NC(=O)[C@H](CCCNC(=N)N)NC1=O [cyclo[Tyr--trp--Ala--Arg--Trp--Gly], cyclo[Tyr-trp-Ala-Arg-Trp-Gly]] (cyclo(ARWGY[dW]))
6 | 360 ± 21 |  | CC(C)C[C@@H]1NC(=O)[C@@H](Cc2c[nH]c3ccccc23)NC(=O)[C@H](Cc2ccc(O)cc2)NC(=O)[C@H](Cc2c[nH]c3ccccc23)NC(=O)CNC(=O)[C@H](CCCNC(=N)N)NC1=O [cyclo[Tyr--trp--Leu--Arg--Gly--Trp], cyclo[Tyr-trp-Leu-Arg-Gly-Trp]] (cyclo(GWY[dW]LR))
7 | 9.9 ± 0.9 |  | CC(C)C[C@@H]1NC(=O)[C@@H](Cc2c[nH]c3ccccc23)NC(=O)[C@H](Cc2ccc(O)cc2)NC(=O)[C@H](C)NC(=O)[C@H](Cc2c[nH]c3ccccc23)NC(=O)[C@H](CCCNC(=N)N)NC1=O [cyclo[Tyr--trp--Leu--Arg--Trp--Ala], cyclo[Tyr-trp-Leu-Arg-Trp-Ala]] (cyclo(AY[dW]LRW))
8 | 30 ± 2.52 | 5170 ± 507 | CC(C)C[C@@H]1NC(=O)[C@@H](Cc2c[nH]c3ccccc23)NC(=O)[C@H](Cc2ccc(O)cc2)NC(=O)[C@@H]2CCCN2C(=O)[C@H](Cc2c[nH]c3ccccc23)NC(=O)[C@H](CCCNC(=N)N)NC1=O [cyclo[Tyr--trp--Leu--Arg--Trp--Pro], cyclo[Tyr-trp-Leu-Arg-Trp-Pro]] (cyclo(LRWPY[dW]))
9 | 7.99 ± 1.02 |  | CC(C)C[C@@H]1NC(=O)[C@@H](Cc2c[nH]c3ccccc23)NC(=O)[C@H](Cc2ccc(O)cc2)NC(=O)[C@@H](C)NC(=O)[C@H](Cc2c[nH]c3ccccc23)NC(=O)[C@H](CCCNC(=N)N)NC1=O [cyclo[Tyr--trp--Leu--Arg--Trp--ala]] (cyclo(LRW[dA]Y[dW]))
10 | 206 ± 15 |  | CC(C)C[C@@H]1NC(=O)[C@@H](Cc2c[nH]c3ccccc23)NC(=O)[C@H](Cc2ccc(O)cc2)NC(=O)[C@H](C)NC(=O)[C@H](Cc2ccc(O)cc2)NC(=O)[C@H](CCCNC(=N)N)NC1=O [cyclo[Tyr--trp--Leu--Arg--Tyr--Ala], cyclo[Tyr-trp-Leu-Arg-Tyr-Ala]] (cyclo(AY[dW]LRY))
11 | 18.9 ± 1.58 | > 10000 | CC(C)C[C@@H]1NC(=O)[C@@H](Cc2c[nH]c3ccccc23)NC(=O)[C@H](Cc2ccc(O)cc2)NC(=O)CNC(=O)[C@H](Cc2ccc(O)cc2)NC(=O)[C@H](CCCNC(=N)N)NC1=O [cyclo[Tyr--trp--Leu--Arg--Tyr--Gly], cyclo[Tyr-trp-Leu-Arg-Tyr-Gly]] (cyclo(GY[dW]LRY))
12 | 193 ± 11.5 | > 10000 | CC(C)C[C@@H]1NC(=O)[C@@H](Cc2c[nH]c3ccccc23)NC(=O)[C@H](Cc2ccc(O)cc2)NC(=O)CNC(=O)[C@@H](Cc2c[nH]c3ccccc23)NC(=O)[C@H](CCCNC(=N)N)NC1=O [cyclo[Tyr--trp--Leu--Arg--trp--Gly]] (cyclo(GY[dW]LR[dW]))
13 | 5.13 ± 0.36 | > 10000 | N=C(N)NCCC[C@@H]1NC(=O)[C@@H]2CCCN2C(=O)[C@@H](Cc2c[nH]c3ccccc23)NC(=O)[C@H](Cc2ccc(O)cc2)NC(=O)CNC(=O)[C@H](Cc2c[nH]c3ccccc23)NC1=O [cyclo[Tyr--trp--Pro--Arg--Trp--Gly], cyclo[Tyr-trp-Pro-Arg-Trp-Gly]] (cyclo(GY[dW]PRW))
14 | 13.3 ± 1.31 | ~10000 | CC(C)C[C@@H]1NC(=O)[C@@H](Cc2c[nH]c3ccccc23)NC(=O)[C@H](Cc2ccc(O)cc2)NC(=O)CNC(=O)[C@H](Cc2ccc(Cl)cc2)NC(=O)[C@H](CCCNC(=N)N)NC1=O [cyclo[Tyr-trp-Leu-Arg-(p-Cl-Phe)-Gly]] (cyclo(GY[dW]LR[Phe(4-Cl)]))
15 | 20.2 ± 2.03 | > 10000 | CC(C)C[C@@H]1NC(=O)[C@@H](Cc2c[nH]c3ccccc23)NC(=O)[C@H](Cc2ccc(O)cc2)NC(=O)CNC(=O)[C@H](Cc2ccc(N)cc2)NC(=O)[C@H](CCCNC(=N)N)NC1=O [cyclo[Tyr-trp-Leu-Arg-(p-NH2 -Phe)-Gly]] (cyclo(GY[dW]LR[Phe(4-NH2)]))
16 | 11.7 ± 0.44 | > 10000 | CC(C)C[C@@H]1NC(=O)[C@@H](Cc2c[nH]c3ccccc23)NC(=O)[C@H](Cc2ccc(O)cc2)NC(=O)CNC(=O)[C@H](Cc2ccc([N+](=O)[O-])cc2)NC(=O)[C@H](CCCNC(=N)N)NC1=O [cyclo[Tyr-trp-Leu-Arg-(p-NO2 -Phe)-Gly]] (cyclo(GY[dW]LR[Phe(4-NO2)]))
17 | 407 ± 52 |  | CC(C)C[C@@H]1NC(=O)[C@H](CCC(N)=O)NC(=O)[C@@H](Cc2ccc(O)cc2)NC(=O)CNC(=O)[C@H](Cc2c[nH]c3ccccc23)NC(=O)[C@H](CCCNC(=N)N)NC1=O [cyclo[tyr--Gln--Leu--Arg--Trp--Gly], cyclo[tyr-Gln-Leu-Arg-Trp-Gly]] (cyclo(G[dY]QLRW))
18 | 4.97 ± 0.42 | > 10000 | CC(C)C[C@@H]1NC(=O)[C@@H](Cc2c[nH]c3ccccc23)NC(=O)[C@@H](Cc2ccc(O)cc2)NC(=O)CNC(=O)[C@H](Cc2c[nH]c3ccccc23)NC(=O)[C@H](CCCNC(=N)N)NC1=O [cyclo[tyr--trp--Leu--Arg--Trp--Gly]] (cyclo(G[dY][dW]LRW))
